# System: human vascular endothelial cells
# Assay: Nitric oxide production by cultured human vascular endothelial cells (FIG. 23)
# Format: cell-based
# Protocol: These agents were administered to cultured human vascular endothelial cells stimulated with acetylcholine. Measurement of nitric oxide was through a Seiver's system of nitrate/nitrites.
structure (smiles),measurement,setting,value
N=C(N)NCCC[C@H](N)C(=O)O [arginine],NO production,"applied directly to endothelial cell, very high concentrations (10 mM)",little sign of increased NO production
same,production of nitric oxide,"cells stimulated with acetylcholine, nitrate/nitrites by Seiver's system",no effect on the production of nitric oxide
